Data: ChEMBL document CHEMBL1201862, “PubChem BioAssay data set” (2004)
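Method: 48-hour compound exposure of cells in 96-well plates, five concentrations, linear interpolation of endpoints. Abbreviation: GI50, concentration required for 50% inhibition of growth.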 Active and inactive are the calls of the source. Cut-off read from the data, not from the text of the source: active = GI50 up to about 1.1 µM and inactive = higher.

What was measured:
Experiment in all cases: NCI tumour cell line growth inhibition, 48 h
Malme-3M = test system: Malme-3M
M14 = test system: M14
COLO 205 = test system: COLO 205
HOP-62 = test system: HOP-62
UACC-62 = test system: UACC-62
HOP-92 = test system: HOP-92
T47D = test system: T47D
NCI-H522 = test system: NCI-H522
HCC 2998 = test system: HCC 2998
A498 = test system: A498
OVCAR-4 = test system: OVCAR-4
HCT-116 = test system: HCT-116
DU-145 = test system: DU-145
SF-539 = test system: SF-539
HCT-15 = test system: HCT-15
CAKI-1 = test system: CAKI-1
RXF 393 = test system: RXF 393
LOX IMVI = test system: LOX IMVI
EKVX = test system: EKVX
CCRF-CEM = test system: CCRF-CEM

Row | SMILES | GI50 (Malme-3M) | GI50 (M14) | GI50 (COLO 205) | GI50 (HOP-62) | GI50 (UACC-62) | GI50 (HOP-92) | GI50 (T47D) | GI50 (NCI-H522) | GI50 (HCC 2998) | GI50 (A498) | GI50 (OVCAR-4) | GI50 (HCT-116) | GI50 (DU-145) | GI50 (SF-539) | GI50 (HCT-15) | GI50 (CAKI-1) | GI50 (RXF 393) | GI50 (LOX IMVI) | GI50 (EKVX) | GI50 (CCRF-CEM)
1 | Fc1cccc(F)c1C(Nc1nncs1)Nc1nncs1 | > 100 µM (inactive) | 59.6 µM (inactive) | > 100 µM (inactive) | > 100 µM (inactive) | > 100 µM (inactive) | > 100 µM (inactive) | > 100 µM (inactive) | > 100 µM (inactive) | > 100 µM (inactive) | > 100 µM (inactive) | > 100 µM (inactive) | 50.5 µM (inactive) | > 100 µM (inactive) | 49 µM (inactive) | 91.2 µM | > 100 µM (inactive) | > 100 µM (inactive) | – | – | –
2 | O=C(/C=C/c1ccccc1)c1cc(Br)ccc1O | – | 24 µM (inactive) | 17.3 µM (inactive) | 20.1 µM (inactive) | 13.9 µM (inactive) | 3.15 µM (inactive) | 8.45 µM (inactive) | 12.5 µM (inactive) | 17.5 µM (inactive) | 13.8 µM (inactive) | 15.1 µM (inactive) | 16.3 µM (inactive) | 14.9 µM (inactive) | – | 14.1 µM | 15.8 µM (inactive) | 18.8 µM (inactive) | 12.2 µM (inactive) | 13.8 µM (inactive) | 6.3 µM (inactive)
3 | CC(=O)O[C@@H]1[C@H]2[C@@H](OC(=O)c3ccccc3)[C@@H](C)C[C@]2(O)[C@H](OC(C)=O)[C@@]2(C)[C@@H]3CC(C)(C)C(=O)[C@]3(OC(C)=O)C[C@@]12C | – | 20.8 µM (inactive) | 7.05 µM (inactive) | 10.9 µM (inactive) | > 25 µM (inactive) | 8.24 µM (inactive) | > 25 µM (inactive) | > 25 µM (inactive) | 6.9 µM (inactive) | 12.8 µM (inactive) | > 25 µM (inactive) | > 25 µM (inactive) | > 25 µM (inactive) | 13.2 µM (inactive) | > 25 µM | 13.4 µM (inactive) | > 25 µM (inactive) | > 25 µM (inactive) | > 25 µM (inactive) | 1.92 µM (inactive)
4 | O=c1nc(Oc2c(F)c(F)c(F)c(F)c2F)ccn1C1OC(CO)C(O)C1O (stereo not given) | – | > 100 µM (inactive) | > 100 µM (inactive) | > 100 µM (inactive) | > 100 µM (inactive) | > 100 µM (inactive) | > 100 µM (inactive) | 54.5 µM (inactive) | > 100 µM (inactive) | > 100 µM (inactive) | > 100 µM (inactive) | > 100 µM (inactive) | > 100 µM (inactive) | > 100 µM (inactive) | > 100 µM | > 100 µM (inactive) | > 100 µM (inactive) | > 100 µM (inactive) | > 100 µM (inactive) | > 100 µM (inactive)
5 | O=C(N/N=C/C=C/c1ccccc1)c1ccccc1Nc1ccccc1C(=O)N/N=C/C=C/c1ccccc1 | > 100 µM (inactive) | 48 µM (inactive) | > 100 µM (inactive) | 3.58 µM (inactive) | 93.5 µM (inactive) | 67 µM (inactive) | > 100 µM (inactive) | – | > 100 µM (inactive) | > 100 µM (inactive) | 67.9 µM (inactive) | 90.8 µM (inactive) | > 100 µM (inactive) | – | > 100 µM | > 100 µM (inactive) | 20.5 µM (inactive) | – | > 100 µM (inactive) | 12.5 µM (inactive)
6 | O=C1CC(=O)NC(NN2C(=O)/C(=C/c3ccccc3)N=C2c2ccccc2)=N1 | > 100 µM (inactive) | > 100 µM (inactive) | > 100 µM (inactive) | > 100 µM (inactive) | 26.7 µM (inactive) | > 100 µM (inactive) | > 100 µM (inactive) | > 100 µM (inactive) | > 100 µM (inactive) | > 100 µM (inactive) | > 100 µM (inactive) | > 100 µM (inactive) | > 100 µM (inactive) | > 100 µM (inactive) | > 100 µM | > 100 µM (inactive) | > 100 µM (inactive) | – | – | > 100 µM (inactive)
7 | O=C(C(=O)n1ccc2ccccc21)n1ccc2ccccc21 | > 100 µM (inactive) | – | > 100 µM (inactive) | 99.3 µM (inactive) | 57.9 µM (inactive) | 34 µM (inactive) | > 100 µM (inactive) | 49.2 µM (inactive) | > 100 µM (inactive) | > 100 µM (inactive) | 29 µM (inactive) | > 100 µM (inactive) | > 100 µM (inactive) | 37 µM (inactive) | > 100 µM | > 100 µM (inactive) | 88.7 µM (inactive) | > 100 µM (inactive) | > 100 µM (inactive) | 38.7 µM (inactive)
8 | CCCCOP(=O)(OCCCC)/C(C#N)=C/c1ccc(C)o1 | 29.6 µM (inactive) | 28.2 µM (inactive) | 31.9 µM (inactive) | > 100 µM (inactive) | 53.7 µM (inactive) | 29.6 µM (inactive) | 51.5 µM (inactive) | 58.9 µM (inactive) | > 100 µM (inactive) | 56 µM (inactive) | 46.8 µM (inactive) | 36.9 µM (inactive) | > 100 µM (inactive) | 61.1 µM (inactive) | 38.7 µM | 60.5 µM (inactive) | 26.7 µM (inactive) | 59 µM (inactive) | 40.6 µM (inactive) | –
9 | CCc1ccccc1NNc1cc(=O)[nH]c(=O)[nH]1 | > 10 µM (inactive) | 18.5 µM (inactive) | 18 µM (inactive) | 19.3 µM (inactive) | 19.6 µM (inactive) | 16.6 µM (inactive) | 17.9 µM (inactive) | – | 16.6 µM (inactive) | 21.2 µM (inactive) | 20.3 µM (inactive) | 16.7 µM (inactive) | 46.2 µM (inactive) | 22.6 µM (inactive) | – | 4.09 µM (inactive) | 22.2 µM (inactive) | 14 µM (inactive) | 17.5 µM (inactive) | 26.5 µM (inactive)
10 | COC(=O)C1=C(C)NC(CF)=C(C(=O)OC)C1c1cccc2c(=O)c3ccccc3oc12 (stereo not given) | 11.2 µM (inactive) | – | 4.39 µM (inactive) | 11.7 µM (inactive) | 10.6 µM (inactive) | 3.88 µM (inactive) | 24.3 µM (inactive) | 6.31 µM (inactive) | 6.59 µM (inactive) | 5.53 µM (inactive) | 10.2 µM (inactive) | 5.2 µM (inactive) | 90.4 µM (inactive) | 24.3 µM (inactive) | 4.79 µM | 11.9 µM (inactive) | 11.7 µM (inactive) | 7.4 µM (inactive) | 19.1 µM (inactive) | 5.28 µM (inactive)
11 | O=C1/C(=C/c2ccc(Cl)cc2)N=C(c2ccccc2)N1c1nc2ccccc2s1 | – | 69.8 µM (inactive) | – | > 100 µM (inactive) | – | 66.4 µM (inactive) | 46.8 µM (inactive) | 24.4 µM (inactive) | 42.7 µM (inactive) | 30.5 µM (inactive) | 53.1 µM (inactive) | 40.7 µM (inactive) | 78.2 µM (inactive) | > 100 µM (inactive) | 47.8 µM | 58.9 µM (inactive) | > 100 µM (inactive) | 43.6 µM (inactive) | > 100 µM (inactive) | 47.1 µM (inactive)
12 | S=c1[nH]c(=S)c2cc(Sc3ccc4[nH]c(=S)[nH]c(=S)c4c3)ccc2[nH]1 | 55.3 µM (inactive) | 66.7 µM (inactive) | 26.9 µM (inactive) | – | 20 µM (inactive) | 32.3 µM (inactive) | 50.5 µM (inactive) | 34.8 µM (inactive) | 37.3 µM (inactive) | 24.5 µM (inactive) | 23.2 µM (inactive) | 48.1 µM (inactive) | 62.4 µM (inactive) | 30.2 µM (inactive) | 39.2 µM | 36.6 µM (inactive) | 23.7 µM (inactive) | – | 42.2 µM (inactive) | 25.6 µM (inactive)
13 | COC(=O)C1OC(O[C@H]2CC[C@]3(C)[C@H]4CC=C5[C@@H]6CC(C)(C)CC[C@]6(C(=O)OC)[C@H](O)C[C@@]5(C)[C@]4(C)CC[C@H]3C2(C)C)C(O)C(O)C1O (stereo not given in full) | 12.8 µM (inactive) | 5.22 µM (inactive) | 4.98 µM (inactive) | 17 µM (inactive) | 12.5 µM (inactive) | 16.8 µM (inactive) | 12.6 µM (inactive) | 1.57 µM (inactive) | 2.7 µM (inactive) | 12.6 µM (inactive) | 5.68 µM (inactive) | 4.4 µM (inactive) | 10 µM (inactive) | – | 10.5 µM | 14.2 µM (inactive) | 5.22 µM (inactive) | 3.18 µM (inactive) | 7.96 µM (inactive) | 3.1 µM (inactive)
14 | Oc1c(/N=N/c2ccccc2)c2ccccc2c2ccc3ccccc3c12 | 48.3 µM (inactive) | 57.5 µM (inactive) | > 100 µM (inactive) | 43.6 µM (inactive) | 66.1 µM (inactive) | 38.2 µM (inactive) | > 100 µM (inactive) | > 100 µM (inactive) | > 100 µM (inactive) | > 100 µM (inactive) | 33.2 µM (inactive) | > 100 µM (inactive) | > 100 µM (inactive) | 34.5 µM (inactive) | > 100 µM | 48.6 µM (inactive) | 56.1 µM (inactive) | – | 50.4 µM (inactive) | 43.9 µM (inactive)
15 | CC(C)(C)OC(=O)N(CCCN)CCCCN(CCCN)C(=O)OC(C)(C)C | – | > 100 µM (inactive) | > 100 µM (inactive) | > 100 µM (inactive) | > 100 µM (inactive) | > 100 µM (inactive) | > 100 µM (inactive) | > 100 µM (inactive) | > 100 µM (inactive) | > 100 µM (inactive) | > 100 µM (inactive) | > 100 µM (inactive) | > 100 µM (inactive) | > 100 µM (inactive) | > 100 µM | > 100 µM (inactive) | > 100 µM (inactive) | > 100 µM (inactive) | > 100 µM (inactive) | > 100 µM (inactive)
